Data taken from patent publication US4657927A, “Malonato platinum compounds” (Research Corporation, priority 1983, dated 1987).

Key:
[1] = system: Sarcoma 180; assay: Antitumor activity, solid sarcoma 180 tumor, T/C of tumor weights at day 10 (Table I); type: in vivo, female Swiss white mice
Protocol: The compounds of the invention were tested for antitumor activity, i.e., for sensitivity to a planar dsp^2 platinum(II) coordination compound or an octahedral d^2 sp^3 platinum(IV) coordination compound using our standard screening tumor, solid sarcoma 180 tumor in female Swiss white mice, following standard protocols for this testing as set by the National Cancer Institute. (Cancer Chemotherapy Rep., 25 (1962)).
For these tests an S 180 tumor taken from a sacrificed mouse was disected free of superfluous tissue and cut under sterile conditions into approximately 10 milligram size pieces. These tissue pieces were then implanted by trocar in the left axillary region, subcutaneously, in new mice. The mice were, on the average, approximately four weeks old and weighed 18-20 grams. Taking day 0 as the day of implant, the animals were sacrificed on day 10. The tumors were excised and weighed and the ratio of the weights of the tumors in mice in the treated animals to the control set of animals was obtained. This ratio, multiplied by 100, is given as the T/C ratio in Table I.
For the first set of tests the coordination compound was freshly dissolved in sterile distilled water and injected intraperitoneally on day 1 into each of the test mice. The volume of the injection was usually 1/2 ml. In some cases, in order to get an active dose into the animal where the chemical was not soluble in this amount of solvent, a fine dispersion was prepared of the dose needed for the test. Thus, some of our test results were obtained on animals where a slurry of the compound was injected. These are so noted in Table I below. In addition, for some of the compounds, there was injected about 1 ml of solution, either in one single injection, or in 2 injections given a few hours apart of 1/2 ml each. These injections were initially given in 4 different dose levels for each new compound with 6 mice in each dose level. The tests covered a dose range from a low ineffective dose, to an upper dose level which produced some deaths within the time period of the experiment.

[2] = system: Sarcoma 180; assay: Large Sarcoma 180 regressions, injection on day 8 (Table II); type: in vivo, female Swiss white mice; settings: single i.p. injection on day 8, H2O solution
Protocol: In addition to the day 1 injections described above, in a number of case injections were delayed until day 8 of tumor growth. In these cases the tumor was usually at least larger than 1/2 gm, as estimated by palpation. The animals were then injected and observed for a period of approximately 60 days. Activity was measured by the number of animals whose tumors had regressed to the vanishing point, while still allowing the animal to survive for this time period. Such test results are described in TABLE II below.

[3] = system: ADJ/PC6A; assay: Confirmatory antitumor test, ADJ/PC6A tumor (Table III); type: in vivo, Mouse; settings: single injection day 25 in oil, i.p.
Protocol: (§1) Confirmatory tests of antitumor activity against the Walker 256 Carcinosarcoma in rats, and the ADJ/PC6A tumor in mice were conducted. The initial test results are shown in Table III and confirm the potent action of the compounds of the invention against these other tumor systems.

[4] = system: Walker 256 Carcinosarcoma; assay: Confirmatory antitumor test, Walker 256 Carcinosarcoma (Table III); type: in vivo, Rat; settings: single injection day 1 in oil, i.p.
Protocol: as §1

[5] = system: L1210; assay: Confirmatory antitumor test at the National Cancer Institute, L1210 (Table IV); type: in vivo, Mice
Source text: Samples of the malonato diammine and malonato ethylene diamine complexes of platinum(II) were submitted to the Drug Research and Development Branch of the National Cancer Institute for screening for antitumor activity against the L1210 tumor in mice. They confirm the activity of the compounds of the invention.

[6] = 20 mg/kg, single i.p. injection day 1
[7] = 40 mg/kg, single i.p. injection day 1
[8] = 60 mg/kg, single i.p. injection day 1
[9] = 80 mg/kg, single i.p. injection day 1
[10] = 100 mg/kg, single i.p. injection day 1
[11] = 120 mg/kg, single i.p. injection day 1
[12] = 160 mg/kg, single i.p. injection day 1
[13] = 30 mg/kg, single i.p. injection day 1, solution in H2O
[14] = 40 mg/kg, single i.p. injection day 1, solution in H2O
[15] = 50 mg/kg, single i.p. injection day 1, solution in H2O
[16] = 60 mg/kg, single i.p. injection day 1, solution in H2O
[17] = 70 mg/kg, single i.p. injection day 1, solution in H2O
[18] = 80 mg/kg, single i.p. injection day 1, solution in H2O
[19] = dose level 40 (unit not given), single i.p. injection day 1
[20] = dose level 60 (unit not given), single i.p. injection day 1
[21] = dose level 80 (unit not given), single i.p. injection day 1
[22] = dose level 90 (unit not given), single i.p. injection day 1
[23] = dose level 100 (unit not given), single i.p. injection day 1
[24] = dose level 110 (unit not given), single i.p. injection day 1
[25] = dose level 120 (unit not given), single i.p. injection day 1
[26] = dose level 45 (unit not given), single i.p. injection day 1
[27] = dose level 75 (unit not given), single i.p. injection day 1
[28] = dose level 20 (unit not given), single i.p. injection day 1
[29] = 140 mg/kg, single i.p. injection day 1
[30] = 180 mg/kg, single i.p. injection day 1
[31] = 10 mg/kg, single i.p. injection day 1, solution in H2O
[32] = 20 mg/kg, single i.p. injection day 1, solution in H2O
[33] = 45 mg/kg, single i.p. injection day 1, solution in H2O
[34] = 55 mg/kg, single i.p. injection day 1, solution in H2O
[35] = 90 mg/kg, single i.p. injection day 1, solution in H2O

SMILES: N.N.O=C([O-])C1(C(=O)[O-])CCC1.[Pt+4] [1,1-cyclobutanedicarboxylate diammineplatinum (II)]
- No. of Deaths [1, 6]: 0
- T/C [1, 6]: 71
- No. of Deaths [1, 7]: 0
- T/C [1, 7]: 60
- No. of Deaths [1, 8]: 0
- T/C [1, 8]: 38
- No. of Deaths [1, 9]: 0
- T/C [1, 9]: 42
- No. of Deaths [1, 10]: 0
- T/C [1, 10]: 69
- No. of Deaths [1, 11]: 0
- T/C [1, 11]: 18
- No. of Deaths [1, 12]: 4
- T/C [1, 12]: 62

SMILES: CC1C(=O)[O][Pt]([NH2])([NH2])[O]C1=O [Methylmalonatodiammineplatinum (II)]
- No. of Deaths [1, 13]: 0
- T/C [1, 13]: 39
- No. of Deaths [1, 14]: 0
- T/C [1, 14]: 26
- No. of Deaths [1, 15]: 0
- T/C [1, 15]: 35
- No. of Deaths [1, 16]: 0
- T/C [1, 16]: 6
- No. of Deaths [1, 17]: 3/6
- No. of Deaths [1, 18]: 6/6

SMILES: CCC(C(=O)[O-])C(=O)[O-].N.N.[Pt+2] [ethylmalonatodiammineplatinum (II)]
- No. of Deaths [1, 13]: 0
- T/C [1, 13]: 57
- No. of Deaths [1, 14]: 0
- T/C [1, 14]: 43
- No. of Deaths [1, 15]: 0
- T/C [1, 15]: 47
- No. of Deaths [1, 16]: 0
- T/C [1, 16]: 39
- No. of Deaths [1, 17]: 0
- T/C [1, 17]: 17
- No. of Deaths [1, 18]: 0
- T/C [1, 18]: 16

SMILES: CCC1C(=O)[O][Pt]2([NH]CC[NH]2)[O]C1=O [ethylmalonatoethylenediamineplatinum (II)]
- No. of Deaths [1, 19]: 0
- T/C [1, 19]: 72
- No. of Deaths [1, 20]: 0
- T/C [1, 20]: 81
- No. of Deaths [1, 21]: 0
- T/C [1, 21]: 79
- No. of Deaths [1, 22]: 0
- T/C [1, 22]: 47
- No. of Deaths [1, 23]: 1
- T/C [1, 23]: 55
- No. of Deaths [1, 24]: 0
- T/C [1, 24]: 41
- No. of Deaths [1, 25]: 0
- T/C [1, 25]: 58

SMILES: CC(N)CN.O=C([O-])CC(=O)[O-].[Pt+2] [malonato-1,2 propylenediamineplatinum (II)]
- No. of Deaths [1, 26]: 0
- T/C [1, 26]: 50
- No. of Deaths [1, 20]: 1
- T/C [1, 20]: 9
- No. of Deaths [1, 27]: 3
- T/C [1, 27]: 16
- No. of Deaths [1, 22]: 5

SMILES: NCCCN.O=C([O-])CC(=O)[O-].[Pt+2] [malonato-1,3 propylenediamineplatinum (II)]
- No. of Deaths [1, 28]: 0
- T/C [1, 28]: 69
- No. of Deaths [1, 19]: 0
- T/C [1, 19]: 79
- No. of Deaths [1, 20]: 0
- T/C [1, 20]: 21
- No. of Deaths [1, 21]: 1
- T/C [1, 21]: 35

SMILES: CN.CN.O=C([O-])CC(=O)[O-].[Pt+2] [malonatobis (methylamine) platinum (II)]
- No. of Deaths [1, 9]: 0
- T/C [1, 9]: 58
- No. of Deaths [1, 10]: 0
- T/C [1, 10]: 53
- No. of Deaths [1, 11]: 0
- T/C [1, 11]: 28
- No. of Deaths [1, 29]: 0
- T/C [1, 29]: 25
- No. of Deaths [1, 12]: 1
- T/C [1, 12]: 17
- No. of Deaths [1, 30]: 1
- T/C [1, 30]: 19

SMILES: NCCN.O=C([O-])CC(=O)[O-].[Pt+2] [malonatoethylenediamineplatinum (II)]
- Deaths ([2]; 40 mg/kg): 3
- Total Number of Regressions ([2]; 40 mg/kg): 3
- Deaths ([2]; 45 mg/kg): 5
- Total Number of Regressions ([2]; 45 mg/kg): 1
- Deaths ([2]; 50 mg/kg): 4
- Total Number of Regressions ([2]; 50 mg/kg): 2
- Deaths ([2]; 60 mg/kg): 3
- Total Number of Regressions ([2]; 60 mg/kg): 3
- % Inhibition ([3]; dose 4 (unit not given)): 1.3%
- Deaths ([3]; dose 4 (unit not given)): 0
- % Inhibition ([3]; dose 20 (unit not given)): 94%
- Deaths ([3]; dose 20 (unit not given)): 0
- % Inhibition ([3]; dose 100 (unit not given)): 100%
- Deaths ([3]; dose 100 (unit not given)): 0
- Deaths ([3]; dose 500 (unit not given)): all
- % Inhibition ([4]; dose 10 (unit not given)): 1%
- Deaths ([4]; dose 10 (unit not given)): 0
- % Inhibition ([4]; dose 20 (unit not given)): 25%
- Deaths ([4]; dose 20 (unit not given)): 0
- % Inhibition ([4]; dose 40 (unit not given)): 100%
- Deaths ([4]; dose 40 (unit not given)): 0
- % Inhibition ([4]; dose 80 (unit not given)): 100%
- Deaths ([4]; dose 80 (unit not given)): 0
- Deaths ([4]; dose 160 (unit not given)): all
- % Increase in Lifespan ([5]; 11 mg/kg, daily injections days 1-9, i.p. (repeat test)): 145%
- % Increase in Lifespan ([5]; 12.5 mg/kg, daily injections days 1-9, i.p.): 151%
- % Increase in Lifespan ([5]; 16.5 mg/kg, daily injections days 1-9, i.p. (repeat test)): 160%
- % Increase in Lifespan ([5]; 25 mg/kg, daily injections days 1-9, i.p.): 160%
- % Increase in Lifespan ([5]; 25 mg/kg, daily injections days 1-9, i.p. (repeat test)): 196%
- % Increase in Lifespan ([5]; 37.5 mg/kg, daily injections days 1-9, i.p. (repeat test)): 121%
- % Increase in Lifespan ([5]; 50 mg/kg, daily injections days 1-9, i.p.): 101%
- No. of Deaths [1, 31]: 0
- T/C [1, 31]: 88
- No. of Deaths [1, 32]: 0
- T/C [1, 32]: 58
- No. of Deaths [1, 14]: 0
- T/C [1, 14]: 18
- No. of Deaths [1, 33]: 0
- T/C [1, 33]: 49
- No. of Deaths [1, 15]: 0
- T/C [1, 15]: 35
- No. of Deaths [1, 34]: 0
- T/C [1, 34]: 38
- No. of Deaths [1, 16]: 3/6
- T/C [1, 16]: 15
- No. of Deaths [1, 18]: 3/6
- T/C [1, 18]: 24
- No. of Deaths [1, 20]: 0
- T/C [1, 20]: 80
- No. of Deaths [1, 21]: 0
- No. of Deaths [1, 23]: 0
- T/C [1, 23]: 85
- No. of Deaths [1, 25]: 0
- T/C [1, 25]: 50

SMILES: CC1C(=O)[O][Pt]2([NH]CC[NH]2)[O]C1=O [methylmalonatoethylenediamineplatinum(II)]
- No. of Deaths [1, 13]: 0
- T/C [1, 13]: 78
- No. of Deaths [1, 14]: 0
- T/C [1, 14]: 80
- No. of Deaths [1, 15]: 0
- T/C [1, 15]: 51
- No. of Deaths [1, 16]: 0
- T/C [1, 16]: 26
- No. of Deaths [1, 17]: 1
- T/C [1, 17]: 20
- No. of Deaths [1, 35]: 1
- T/C [1, 35]: 4
